Reference: patent EP1161438B1, “6-O-SUBSTITUTED MACROLIDES HAVING ANTIBACTERIAL ACTIVITY” (ABBOTT LABORATORIES, priority 1999, dated 2000)
Values after ≈ are worked out from the molar mass of the structure shown.

Assays:
Experiment in all cases: Agar dilution antibacterial MIC assay
Type in all cases: cell-based
[1] = tested on: Staphylococcus epidermidis 3519; details: organism code HH, BHI agar, 35-37 °C, 20 to 24 hours, unit assumed
Protocol: (§1) Representative compounds of the present invention were assayed in vitro for antibacterial activity as follows: Twelve petri dishes containing successive aqueous dilutions of the test compound mixed with 10 mL of sterilized Brain Heart Infusion (BHI) agar (Difco 0418-01-5) were prepared. Each plate was inoculated with 1:100 (or 1:10 for slow-growing strains, such as Micrococcus and Streptococcus) dilutions of up to 32 different microorganisms, using a Steers replicator block. […] In addition, a control plate, using BHI agar containing no test compound, was prepared and incubated at the beginning and end of each test.
(§2) An additional plate containing a compound having known susceptibility patterns for the organisms being tested and belonging to the same antibiotic class as the test compound was also prepared and incubated as a further control, as well as to provide test-to-test comparability.
(§3) After incubation, each plate was visually inspected. The minimum inhibitory concentration (MIC) was defined as the lowest concentration of drug yielding no growth, a slight haze, or sparsely isolated colonies on the inoculum spot as compared to the growth control.

[2] = tested on: Streptococcus pyogenes 930; details: organism code MM, BHI agar, 35-37 °C, 20 to 24 hours, unit assumed
Protocol: as §1, §2, §3

[3] = tested on: Staphylococcus aureus A-5278; details: organism code CC, BHI agar, 35-37 °C, 20 to 24 hours, unit assumed
Protocol: as §1, §2, §3

[4] = tested on: Nocardia Asteroides ATCC9970; details: organism code VV, BHI agar, 35-37 °C, 20 to 24 hours, unit assumed
Protocol: as §1, §2, §3

[5] = tested on: Streptococcus Pneumonia 5649; details: organism code ZZA, BHI agar, 35-37 °C, 20 to 24 hours, unit assumed
Protocol: as §1, §2, §3

Candida albicans CCH 442 = details: organism code TT, BHI agar, 35-37 °C, 20 to 24 hours, unit assumed
Protocol: as §1, §2, §3

[6] = tested on: Mycobacterium smegmatis ATCC 114; details: organism code UU, BHI agar, 35-37 °C, 20 to 24 hours, unit assumed
Protocol: as §1, §2, §3

[7] = tested on: Haemophilis Influenzae DILL AMP R; details: organism code WW, BHI agar, 35-37 °C, 20 to 24 hours, unit assumed
Protocol: as §1, §2, §3

[8] = tested on: Streptococcus agalactiae CMX 508; details: organism code KK, BHI agar, 35-37 °C, 20 to 24 hours, unit assumed
Protocol: as §1, §2, §3

[9] = tested on: Staphylococcus aureus CMX 642A; details: organism code DD, BHI agar, 35-37 °C, 20 to 24 hours, unit assumed
Protocol: as §1, §2, §3

[10] = tested on: Staphylococcus aureus CMX 553; details: organism code FF, BHI agar, 35-37 °C, 20 to 24 hours, unit assumed
Protocol: as §1, §2, §3

Escherichia coli DC-2 = details: organism code SS, BHI agar, 35-37 °C, 20 to 24 hours, unit assumed
Protocol: as §1, §2, §3

[11] = tested on: Staphylococcus aureus ATCC 6538P; details: organism code AA, BHI agar, 35-37 °C, 20 to 24 hours, unit assumed
Protocol: as §1, §2, §3

[12] = tested on: Micrococcus luteus ATCC 9341; details: organism code OO, BHI agar, 35-37 °C, 20 to 24 hours, unit assumed
Protocol: as §1, §2, §3

[13] = tested on: Streptococcus pyogenes EES61; details: organism code LL, BHI agar, 35-37 °C, 20 to 24 hours, unit assumed
Protocol: as §1, §2, §3

Escherichia coli SS = details: organism code RR, BHI agar, 35-37 °C, 20 to 24 hours, unit assumed
Protocol: as §1, §2, §3

[14] = tested on: Streptococcus Pneumonia ATCC6303; details: organism code XX, BHI agar, 35-37 °C, 20 to 24 hours, unit assumed
Protocol: as §1, §2, §3

[15] = tested on: Enterococcus faecium ATCC 8043; details: organism code II, BHI agar, 35-37 °C, 20 to 24 hours, unit assumed
Protocol: as §1, §2, §3

[16] = tested on: Staphylococcus aureus 1775; details: organism code GG, BHI agar, 35-37 °C, 20 to 24 hours, unit assumed
Protocol: as §1, §2, §3

Escherichia coli JUHL = details: organism code QQ, BHI agar, 35-37 °C, 20 to 24 hours, unit assumed
Protocol: as §1, §2, §3

[17] = tested on: Streptococcus Pneumonia GYR 1171; details: organism code YY, BHI agar, 35-37 °C, 20 to 24 hours, unit assumed
Protocol: as §1, §2, §3

[18] = tested on: Micrococcus luteus ATCC 4698; details: organism code PP, BHI agar, 35-37 °C, 20 to 24 hours, unit assumed
Protocol: as §1, §2, §3

[19] = tested on: Streptococcus pyogenes PIU 2548; details: organism code NN, BHI agar, 35-37 °C, 20 to 24 hours, unit assumed
Protocol: as §1, §2, §3

[20] = tested on: Streptococcus bovis A-5169; details: organism code JJ, BHI agar, 35-37 °C, 20 to 24 hours, unit assumed
Protocol: as §1, §2, §3

[21] = tested on: Staphylococcus aureus A5177; details: organism code BB, BHI agar, 35-37 °C, 20 to 24 hours, unit assumed
Protocol: as §1, §2, §3

[22] = tested on: Staphylococcus aureus NCTC10649M; details: organism code EE, BHI agar, 35-37 °C, 20 to 24 hours, unit assumed
Protocol: as §1, §2, §3

[23] = tested on: Streptococcus Pneumonia 5979; details: organism code ZZ, BHI agar, 35-37 °C, 20 to 24 hours, unit assumed
Protocol: as §1, §2, §3

Row | Compound | MIC [1] [µg/mL] | MIC [2] [µg/mL] | MIC [3] [µg/mL] | MIC [4] [µg/mL] | MIC [5] [µg/mL] | MIC (Candida albicans CCH 442) [µg/mL] | MIC [6] [µg/mL] | MIC [7] [µg/mL] | MIC [8] [µg/mL] | MIC [11] [µg/mL] | MIC [13] [µg/mL] | MIC (Escherichia coli SS) [µg/mL] | MIC [14] [µg/mL] | MIC [16] [µg/mL] | MIC (Escherichia coli JUHL) [µg/mL] | MIC [17] [µg/mL] | MIC [18] [µg/mL] | MIC [19] [µg/mL] | MIC [20] [µg/mL] | MIC [21] [µg/mL] | further results
1 | CC[C@H]1OC(=O)[C@H](C)[C@@H](O[C@H]2C[C@@](C)(OC)[C@@H](O)[C@H](C)O2)[C@H](C)[C@@H](O[C@@H]2O[C@H](C)C[C@H](N(C)C)[C@H]2O)[C@](C)(O)C[C@@H](C)C(=O)[C@H](C)[C@@H](O)[C@]1(C)O [Ery. A standard, Erythromycin A, reference compound] | 0.39 (≈ 0.531 µM) | > 100 | > 100 | 0.1 (≈ 0.136 µM) | 16 (≈ 21.8 µM) | > 100 | 3.1 (≈ 4.22 µM) | 4 (≈ 5.45 µM) | 0.05 (≈ 0.0681 µM) | 0.2 (≈ 0.273 µM) | 0.05 (≈ 0.0681 µM) | 0.78 (≈ 1.06 µM) | 0.06 (≈ 0.0818 µM) | > 100 | > 100 | 0.06 (≈ 0.0818 µM) | 0.2 (≈ 0.273 µM) | 6.2 (≈ 8.45 µM) | 0.02 (≈ 0.0273 µM) | 3.1 (≈ 4.22 µM) | MIC [9]: 0.39 µg/mL (≈ 0.531 µM); MIC [10]: 0.39 µg/mL (≈ 0.531 µM); MIC (Escherichia coli DC-2): > 100 µg/mL; MIC [12]: 0.05 µg/mL (≈ 0.0681 µM); MIC [15]: 0.05 µg/mL (≈ 0.0681 µM); MIC [22]: 0.39 µg/mL (≈ 0.531 µM)
2 | CC[C@H]1OC(=O)[C@H](C)C(=O)[C@H](C)[C@@H](O[C@@H]2O[C@H](C)C[C@H](N(C)C)[C@H]2O)[C@](C)(OCC#Cc2ccc(-c3ccccn3)s2)C[C@@H](C)C(=O)[C@H](C)[C@H]2NC(=O)O[C@@]21C [Example 1, Compound of Formula I: R^b is H, L is -C(O)-, T is -NH-, R is-(CH2)-C≡C-(5-(2-pyridyl)-2-thienyl)] | 0.1 | 12.5 | > 100 | 0.02 | 0.25 | > 100 | 0.2 | 2 | 0.02 | 0.05 | 0.02 | 0.1 | 0.03 | > 100 | 12.5 | 0.03 | 0.1 | 0.1 | 0.01 | 0.05 | MIC [9]: 0.05 µg/mL; MIC [23]: 0.25 µg/mL; MIC [10]: 0.05 µg/mL; MIC (Escherichia coli DC-2): 6.2 µg/mL; MIC [12]: 0.02 µg/mL; MIC [15]: 0.05 µg/mL; MIC [22]: 0.1 µg/mL
3 | CC[C@H]1OC(=O)[C@H](C)C(=O)[C@H](C)[C@@H](O[C@@H]2O[C@H](C)C[C@H](N(C)C)[C@H]2O)[C@](C)(OCC#Cc2ccc(-c3cccnc3)s2)C[C@@H](C)C(=O)[C@H](C)[C@H]2NC(=O)O[C@@]21C [Example 2, Compound of Formula I: R^b is H, L is -C(O)-, T is -NH-, R is-(CH2)-C≡C-(5-(3-pyridyl)-2-thienyl)] | 0.05 | 3.1 | > 100 | 0.05 | 0.12 | > 100 | 0.2 | 2 | ≤ 0.005 | 0.05 | 0.01 | 0.1 | 0.03 | > 100 | 25 | 0.03 | 0.1 | 0.1 | ≤ 0.005 | 0.05 | MIC [9]: 0.05 µg/mL; MIC [23]: 0.25 µg/mL; MIC [10]: 0.05 µg/mL; MIC (Escherichia coli DC-2): 25 µg/mL; MIC [12]: ≤ 0.005 µg/mL; MIC [15]: 0.05 µg/mL; MIC [22]: 0.05 µg/mL
4 | CC[C@H]1OC(=O)[C@H](C)C(=O)[C@H](C)[C@@H](O[C@@H]2O[C@H](C)C[C@H](N(C)C)[C@H]2O)[C@](C)(OCC#Cc2ccc(-c3ccncc3)s2)C[C@@H](C)C(=O)[C@H](C)[C@H]2NC(=O)O[C@@]21C [Example 3, Compound of Formula I: R^b is H, L is -C(O)-, T is -NH-, R is-(CH2)-C≡C-(5-(4-pyridyl)-2-thienyl)] | > 100 | 6.2 | > 100 | 0.01 | 0.125 | > 100 | 0.039 | 2 | ≤ 0.05 | 0.05 | ≤ 0.05 | 0.2 | ≤ 0.004 |  | 100 | ≤ 0.004 | 0.05 | 0.1 | ≤ 0.05 | 0.05 | MIC [9]: 0.1 µg/mL; MIC [23]: 2 µg/mL
5 | CC[C@H]1OC(=O)[C@H](C)C(=O)[C@H](C)[C@@H](O[C@@H]2O[C@H](C)C[C@H](N(C)C)[C@H]2O)[C@](C)(OCC#Cc2ccc(-c3ccccn3)s2)C[C@@H](C)C(=O)[C@H](C)[C@H]2N(N)C(=O)O[C@]12C [Example 5, Compound of Formula I: R^b is H, L is -C(O)-, T is -N(W-R^d)-, W is -NH-, R^d is H, R is-(CH2)-C≡C-(5-(2-pyridyl)-2-thienyl)] | 0.1 | 50 | > 100 | 0.01 | 0.25 | > 100 | 1.56 | 2 | ≤ 0.005 | 0.05 | 0.01 | 0.2 | 0.015 | > 100 | 25 | 0.015 | 0.1 | 0.39 | ≤ 0.005 | 0.05 | MIC [23]: 2 µg/mL; MIC [22]: 0.1 µg/mL
6 | Compound of Formula II: R^b is H, R is -(CH2)-C≡C-(5-(2-pyridyl)-2-thienyl) [Example 4] | 0.1 | 6.2 | > 100 | 0.02 | 0.25 | > 100 | 0.2 | 4 | 0.05 | 0.05 | 0.02 | 0.39 | ≤ 0.004 | > 100 | 25 | ≤ 0.004 | 0.2 | 0.2 | 0.01 | 0.1 | MIC [23]: 4 µg/mL; MIC [22]: 0.2 µg/mL
